Experimental data from PubChem BioAssay (NCI).
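Five concentrations, 48 hours, 96-well plates. GI50: concentration for 50% inhibition of growth. Definition used: TGI = concentration required for complete inhibition of growth.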

Assays:
Experiment in all cases: inhibition of tumour cell growth, NCI panel, 48 h
[1] = tested on: MALME-3M melanoma
[2] = tested on: SK-MEL-5 melanoma
[3] = tested on: RPMI-8226 leukemia
[4] = tested on: RXF 393 renal
[5] = tested on: SR leukemia
[6] = tested on: MDA-MB-231 breast
[7] = tested on: BT-549 breast
[8] = tested on: HCC-2998 colon

Row | Structure (SMILES) | TGI [1] | TGI [2] | TGI [3] | TGI [4] | TGI [5] | TGI [6] | TGI [7] | GI50 [8] | TGI [8] | GI50 [1] | GI50 [2] | GI50 [3] | GI50 [4] | GI50 [5] | GI50 [6] | GI50 [7]
1 | O=C1c2ccccc2C(=O)N1CC1(C(=O)O)NCCS1(=O)=O (stereo not drawn) | > 100 µM | > 100 µM | > 100 µM | > 100 µM | > 100 µM | > 100 µM | > 100 µM | – | – | – | – | – | – | – | – | –
2 | N#Cc1ncc(/N=C/c2ccc(N(CCCl)CCCl)cc2)s1 | > 100 µM | > 100 µM | > 100 µM | 28.9 µM | > 100 µM | > 100 µM | > 100 µM | 23.9 µM | > 100 µM | 30.8 µM | 27.9 µM | 53.7 µM | 12.4 µM | 0.543 µM | 50.2 µM | 29.6 µM
3 | CCCN(Cc1ccc(F)cc1)c1ccc(CO)c(Cl)c1 | 28.6 µM | 19.8 µM | 14 µM | 16.8 µM | 35.4 µM | 27.3 µM | 25.6 µM | 8.9 µM | 22.5 µM | 14.1 µM | 6.51 µM | 1.91 µM | 4.12 µM | 13.6 µM | 13 µM | 11.7 µM
4 | CC[C@H](Nc1nc(N)nc(C)c1C#N)c1nc2cccc(CN(C)c3ncc(C(=O)NO)cn3)c2c(=O)n1-c1ccccc1 | 2.47 µM | 1.12 µM | > 40.8 µM | 1.33 µM | > 50 µM | 3.08 µM | 12.5 µM | 0.806 µM | 2.32 µM | 0.129 µM | 0.391 µM | 0.212 µM | 0.47 µM | 0.396 µM | 0.779 µM | 2.26 µM
5 | CN(C)CCCNC(=O)c1cc(NC(=O)CCNS(=O)(=O)c2ccc3c(c2)C(=O)c2ccccc2C3=O)cn1C | – | > 100 µM | > 100 µM | > 100 µM | > 100 µM | > 100 µM | > 100 µM | > 100 µM | > 100 µM | – | > 100 µM | > 100 µM | > 100 µM | > 100 µM | > 100 µM | > 100 µM
6 | C=C(C)[C@@H]1CC[C@]2(C(=O)NCCCN)CC[C@]3(C)[C@H](CC[C@@H]4[C@@]5(C)CC[C@H](O)C(C)(C)[C@@H]5CC[C@]43C)[C@@H]12 | 94.1 µM | 48.6 µM | 92.6 µM | 44.1 µM | > 100 µM | 76.2 µM | 75.9 µM | 21.4 µM | 77.1 µM | 23.3 µM | 19.4 µM | 17.2 µM | 17 µM | 9.05 µM | 21.1 µM | 23.8 µM
7 | Cn1c(=O)c2[nH]c(/N=N/N3CCN(CCO)CC3)nc2n(C)c1=O | > 100 µM | > 100 µM | > 100 µM | > 100 µM | > 100 µM | > 100 µM | > 100 µM | – | – | – | – | – | – | – | – | –
8 | O=C(O)CS(=O)(=O)C(c1ccccc1)c1ccccc1 | > 100 µM | > 100 µM | > 100 µM | > 100 µM | > 100 µM | > 100 µM | > 100 µM | – | – | – | – | – | – | – | – | –
9 | CC(C)(C(=O)NN)c1ccccc1 | > 100 µM | > 100 µM | > 100 µM | – | > 100 µM | > 100 µM | > 100 µM | – | > 100 µM | – | – | – | – | – | – | –
10 | CCN=C1C=CC(=C(c2ccc(N(C)C)cc2)c2ccc(N(C)C)cc2)c2ccccc21 | 0.0855 µM | 0.213 µM | 0.0555 µM | – | 0.572 µM | 1.3 µM | 0.489 µM | 0.137 µM | 0.696 µM | 0.026 µM | 0.0609 µM | 0.0165 µM | – | 0.0846 µM | 0.171 µM | 0.0868 µM
11 | O=C(CCN1CCCC1)Nc1ccc2c(NCc3ccc(F)cc3)c3ccccc3nc2c1 | 2.4 µM | 2.76 µM | – | 1.61 µM | 1.72 µM | 1.91 µM | 2.67 µM | 0.485 µM | 2.03 µM | 1.11 µM | 1.44 µM | – | 0.401 µM | 0.349 µM | 0.454 µM | 1.2 µM
12 | Cc1ccc(C(=O)Nc2ccc(S(=O)(=O)O)c3cc(S(=O)(=O)O)cc(S(=O)(=O)O)c23)cc1NC(=O)c1cccc(N)c1 | > 100 µM | > 100 µM | – | > 100 µM | > 100 µM | > 100 µM | > 100 µM | – | > 100 µM | – | – | – | – | – | – | –
13 | C[C@]12CC[C@H]3[C@@H](CCC4=CC(=O)CC[C@@H]43)[C@@H]1CC[C@@H]2OC(=O)N(CCCl)N=O | 28.9 µM | 16.1 µM | – | – | – | 37.9 µM | 26 µM | 2.2 µM | 12.4 µM | 11.3 µM | 1.99 µM | 0.983 µM | – | < 0.0381 µM | 14.2 µM | 11.2 µM
